Test results taken from PubChem BioAssay (NCI).
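Growth conditions: 96-well plates. Treatment: test compound, 48 hours, 5 concentrations. Analysis: linear interpolation between bracketing concentrations; unreached endpoints set to highest concentration. The concentration for 50% growth inhibition is given as GI50. The concentration for full growth arrest is given as TGI.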

Tests used:
Assay in all cases: NCI anticancer screen, dose series, 48 h
IGROV1 ovarian = test system: IGROV1 ovarian
LOX IMVI melanoma = test system: LOX IMVI melanoma
MOLT-4 leukemia = test system: MOLT-4 leukemia
NCI-H226 lung = test system: NCI-H226 lung
NCI-H460 lung = test system: NCI-H460 lung
NCI/ADR-RES ovarian = test system: NCI/ADR-RES ovarian
OVCAR-5 ovarian = test system: OVCAR-5 ovarian
SK-OV-3 ovarian = test system: SK-OV-3 ovarian
T-47D breast = test system: T-47D breast
UACC-257 melanoma = test system: UACC-257 melanoma

SMILES	GI50 (IGROV1 ovarian) [µM]	TGI (IGROV1 ovarian) [µM]	GI50 (LOX IMVI melanoma) [µM]	TGI (LOX IMVI melanoma) [µM]	GI50 (MOLT-4 leukemia) [µM]	TGI (MOLT-4 leukemia) [µM]	GI50 (NCI-H226 lung) [µM]	TGI (NCI-H226 lung) [µM]	GI50 (NCI-H460 lung) [µM]	TGI (NCI-H460 lung) [µM]	GI50 (NCI/ADR-RES ovarian) [µM]	TGI (NCI/ADR-RES ovarian) [µM]	GI50 (OVCAR-5 ovarian) [µM]	TGI (OVCAR-5 ovarian) [µM]	GI50 (SK-OV-3 ovarian) [µM]	TGI (SK-OV-3 ovarian) [µM]	GI50 (T-47D breast) [µM]	TGI (T-47D breast) [µM]	GI50 (UACC-257 melanoma) [µM]	TGI (UACC-257 melanoma) [µM]
CC(=O)OC1COC(Oc2c(C)c3c4c(c2O)[C@@H](C)CC[C@@H]4[C@@H](C)C[C@H]3C=C(C)C)C(O)C1O (some centres undefined)	20.1	> 100	19.1	40	2.24	22.5	21.8	52.3	16.2	52.2	15.3	31.3	18.1	37.3	20.7	44	33.2	> 100		
Cc1cn2c(/C=C3/C(=O)Nc4ccc(C(=O)O)cc43)c(C)nc2s1	> 100	> 100	> 100	> 100	> 100	> 100	> 100	> 100	> 100	> 100	> 100	> 100	> 100	> 100	> 100	> 100	> 100	> 100	> 100	> 100
COc1cc(OC)c(/C=C/C(=O)c2c(N)cc(OC)cc2OC)c(OC)c1	0.797	> 100	0.537	> 100	1.02	> 100	11.2	> 100	0.347	> 51.2			2.51	> 100	0.767	> 100	0.478	> 100		
Nc1c(C(=O)Nc2ccccn2)sc2nc3c(cc12)CCCCCC3	1.95	13.9	2.97	41.9	0.392	> 50	3.15	18.5	1.12	6.62	0.57	41.4	2.67	17.9	1.91	15.2	2.09	34.6	7.88	30.7
CC(C)c1cc(C(C)C)c(Cl)c(Cl)c1O (tested in a mixture with another compound)		81.1		> 100						> 100		> 100		> 100						39.3
Cc1ccc(C(=O)N2C/C(=C/c3ccccc3)C(=O)/C(=C/c3ccccc3)C2)cc1	12.8	> 100	1.16	3.08	4.98	> 100		> 100	31	> 100	27.7	> 100	> 75.5	> 100	8.64	> 100	15.6	> 100	10.1	> 100
CN1CC[C@]23c4c5ccc(O)c4OC2c2[nH]ncc2C[C@H]3[C@H]1C5 (some centres undefined)		> 100		> 100		> 100		> 100		> 100		> 100		> 100		> 100		> 100		> 100
